Assay results as given in patent US7547763B2, “Sequences of an Ih ion channel and use thereof” (Forschungszentrum Julich GmbH, priority 1998, dated 2009).
Values belong to the compound of their own block, whether it stands above or below them.

Key:
SPIH channel [1] = experiment: Blockade of the SPIH channel by extracellular Cs+ on outside-out membrane patches; format: cell-based, Strongylocentrotus purpuratus
Method: (§1) cDNA coding the SPIH polypeptide was transiently expressed in HEK293 cells, as described earlier (Baumann et al, 1994). SPIH-controlled currents were recorded with the patch-clamp method in the whole-cell configuration and cell-free membrane patches. The composition of various bath and pipette solutions is indicated in the legends of the figures (see below). The channels were activated by stepping the membrane voltage from +10 mV to various negative voltage values. Leakage currents were subtracted using a P/8 protocol. The voltage dependence of the probability that the channel is open was determined from tail currents at +10 mV. The blockade of the SPIH channel by Cs2+ was analyzed with outside-out membrane patches in the presence of 1 mM cAPM in a pipette solution. The solutions in the bath contained 0.03 to 10 mM CsCl. Relative ion permeabilities were calculated from the respective shift of Vrev, which was measured on cell-free inside-out membrane patches, when 100 mM K^+ in the bath had been replaced by Na^+, Li^+, Rb^+ or Cs^+.

SPIH channel [2] = biological target: T1, SPIH channel (Strongylocentrotus purpuratus, UniProt O76977); experiment: Patch-clamp of SPIH currents on excised inside-out membrane patches of transfected HEK293 cells, modulation by cyclic nucleotides; format: cell-based
T1 sequence (O76977 1-767): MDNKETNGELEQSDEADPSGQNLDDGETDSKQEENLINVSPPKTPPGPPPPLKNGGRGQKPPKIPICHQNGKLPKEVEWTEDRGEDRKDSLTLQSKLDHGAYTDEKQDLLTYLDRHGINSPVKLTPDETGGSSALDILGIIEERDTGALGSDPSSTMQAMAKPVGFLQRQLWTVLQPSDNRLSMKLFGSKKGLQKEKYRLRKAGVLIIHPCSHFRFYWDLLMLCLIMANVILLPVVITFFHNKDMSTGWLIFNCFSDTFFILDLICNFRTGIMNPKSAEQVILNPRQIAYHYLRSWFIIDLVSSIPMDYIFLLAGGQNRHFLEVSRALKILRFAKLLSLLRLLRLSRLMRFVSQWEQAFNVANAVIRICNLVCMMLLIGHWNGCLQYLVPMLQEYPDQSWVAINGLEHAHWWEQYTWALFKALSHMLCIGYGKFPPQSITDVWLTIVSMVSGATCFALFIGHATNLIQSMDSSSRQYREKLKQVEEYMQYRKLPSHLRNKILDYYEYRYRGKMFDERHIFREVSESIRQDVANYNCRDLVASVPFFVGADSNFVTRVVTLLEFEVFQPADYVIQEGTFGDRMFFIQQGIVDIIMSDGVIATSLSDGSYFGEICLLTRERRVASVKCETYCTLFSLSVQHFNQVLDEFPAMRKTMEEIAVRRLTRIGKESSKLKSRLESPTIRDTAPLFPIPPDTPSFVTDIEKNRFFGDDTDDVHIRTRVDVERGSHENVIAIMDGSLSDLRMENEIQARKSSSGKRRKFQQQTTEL
Method: as §1

SPIH channel [3] = experiment: Whole-cell patch-clamp of SPIH currents in transfected HEK293 cells, cyclic nucleotides or caged derivatives in the pipette; format: cell-based, Strongylocentrotus purpuratus
Method: as §1, with “The voltage dependence of the probability that the channel is open was determined from tail currents at +10 mV. The blockade of the SPIH channel by Cs2+ was analyzed with outside-out membrane patches in the presence of 1 mM cAPM in a pipette solution.” left out, “Cs^+. […] The voltage-step protocol is the same as in FIG. 2A. The bath contained (mM): 135 NaCl, 5 KCl, 1.8 CaCl2, 2.8 MgCl2 and 5 Hepes-NaOH at pH 7.4; the pipette solution contained […]” for “Cs^+.”

Ki (SPIH channel [1]; at −70 mV, 1 mM cAMP in pipette, Hill fit, read-out: inhibitory constant Ki for block of standardized current I/Imax): 245 µM
Compound: [Cs+] [Cs^+]
effect on currents (SPIH channel [1]; 10 mM Cs+ in the bath): inward currents disappeared completely

enhancement of the amplitudes of the voltage-activated currents (SPIH channel [2]; 1 mM cAMP, excised membrane patches): up to 20 fold
Hill coefficient n of the cAMP dependence of the SPIH current (SPIH channel [2]; inside-out patches, fit of Hill equation, mean of 10 experiments): 1.05
V1/2 of voltage dependence of Po (SPIH channel [2]; inside-out-patch tail currents, 1 mM cAMP in bath, Boltzmann fit): −84.7 mV
Compound: Nc1ncnc2c1ncn2[C@@H]1O[C@@H]2COP(=O)(O)O[C@H]2[C@H]1O [cAMP]
V1/2 of voltage dependence of Po (SPIH channel [3]; whole-cell tail currents, 1 mM cAMP in pipette, Boltzmann fit): −50.8 mV

Compound: Nc1nc2c(ncn2[C@@H]2O[C@@H]3COP(=O)(O)O[C@H]3[C@H]2O)c(=O)[nH]1 [cGMP]
effect on amplitude of the SPIH currents (SPIH channel [2]; cGMP concentrations of up to 1 mM, excised membrane patches): did not change the amplitude of the SPIH currents
effect on SPIH-induced whole-cell currents (SPIH channel [3]; 1 mM in the pipette): also changed the SPIH-induced currents
